Laboratory results published in patent publication US20110207745A1 (priority 2009, published 2011).
Counter-ions that a name gives are not always drawn. Like-named read-outs stand apart in the source and are kept apart here.

Columns and labels:
[1] = format: physicochemical; details: water vapor sorption, typical laboratory humidity (55% RH)
Description: Data are collected on a VTI SGA-100 moisture balance system. For sorption isotherms, a sorption range of about 0% to about 90% relative humidity (RH) and a desorption range of about 90 to about 0% RH in 10% RH increments are used for analysis. The samples are not dried prior to analysis. Equilibrium criteria used for analysis are less than 0.0100% weight change in 5 minutes with a maximum equilibration time of 3 hours if the weight criterion is not met. Data are not corrected for the initial moisture content of the samples.
The amorphous material was placed into preset RH conditions (50% and 75% RH) for 24 hours to check dynamic moisture absorption as well as deliquescence.

[2] = Solubility in simulated biological media; format: physicochemical; details: mean ± SD, n = 2
Source text: Solubility and Dissolution Rate Data.
Solubility and Dissolution Rate Data. […]

[3] = Description: Stress Experiments. Solids are stressed under different temperature or relative humidity (RH) environments for a measured time period. Specific RH values are achieved by placing the sample inside sealed chambers containing saturated salt solutions, as known in the art. The salt solutions are selected and prepared following an ASTM standard procedure. Samples are analyzed by XRPD immediately after removal from the stress environment.
Analyses are carried out on an Agilent® model 1100 high performance liquid chromatograph using gradient elution on a reversed phase column utilizing ultraviolet (UV) detection. Approximately 25 mg of the sample is weighed accurately and dissolved in methanol/water/trifluoroacetic acid (35:65:0.05) to a volume of 50 mL. The sample solution is analysed using the conditions specified below:
The content of the drug and related substances are quantified by area (%).
Chemical Stability. The chemical stability of Form I of the mono-HCl salt of Compound A1 was assessed by stressing the material at various temperature/relative humidity/light conditions, then analyzing by HPLC.
Chemical Stability Data. The chemical stability of a sample of Form I of the sesquifumarate salt of Compound A1 was assessed by stressing the material at various temperature/relative humidity/light conditions, then analyzing by HPLC.

[4] = Plasma exposure of efficacious doses in rodents; format: in vivo; details: separate tests of anxiolysis and antidepressant activity
[5] = Intrinsic dissolution rate in simulated biological media; format: physicochemical
Description: Intrinsic dissolution rate is determined at 37° C. using a Distek Dissolution System model 5100A with a sample size of approximately 200 mg (0.5 cm^2 disc) and 500 mL dissolution medium. The paddle speed is set to 500 rpm and the paddle height to approximately 2.54 cm above the disc surface. The concentration of sample in solution is determined by HPLC.

[6] = 0.1M phosphate buffer, initial pH 7.5
[7] = FaSSIF (fasted-state simulated intestinal fluid), initial pH 6.51
[8] = FeSSIF (fed-state simulated intestinal fluid), initial pH 5.03
[9] = SGF (simulated gastric fluid), initial pH 1.3
[10] = Ultraviolet light, 25° C./60% RH, 2x ICH (2 days), stored open
[11] = Ultraviolet light, 25° C./60% RH, 3x ICH (3 days), stored open
[12] = Ultraviolet light, 25° C./60% RH, ICH (1 day), stored open
[13] = White light, 25° C./60%, ICH (7 days), stored open

## CCN(CC)C(=O)c1ccc([C@H](c2cccc(N)c2)N2CCN(Cc3ccc(F)cc3)CC2)cc1 [Form I of the sesquifumarate salt of Compound A1] [4-{(R)-(3-aminophenyl)[4-(4-fluorobenzyl)piperazin-1-yl]methyl}-N,N-diethylbenzamide]
[1]
  moisture content at equilibrium: approximately 4.5%
[2]; [6]
  Solubility, 3 hr: 180 µg/mL
  Solubility, 24 hr: 120 µg/mL
[2]; [7]
  Solubility, 3 hr: 4400 µg/mL
  Solubility, 24 hr: 4130 µg/mL
[2]; [8]
  Solubility, 3 hr: 2540 µg/mL
  Solubility, 24 hr: 2660 µg/mL
[2]; [9]
  Solubility, 3 hr: 17400 µg/mL
  Solubility, 24 hr: 17100 µg/mL
[3]; 25° C./60% RH, 7 days
  % Purity (after challenge): 99.6%
  % Purity (reference material): 104.0%
[3]; 40° C./75% RH, 7 days
  % Purity (after challenge): 99.5%
  % Purity (reference material): 103.5%
[3]; 60° C./80% RH, 2 weeks, HPLC area %
  % Purity after 60° C./80% RH, 2 wks: 86.5%
[3]; 60° C./80% RH, 4 weeks, HPLC area %
  % Purity after 60° C./80% RH, 4 wks: 80.3%
[3]; 80° C., 2 weeks, HPLC area %
  % Purity after 80° C., 2 wks: 91.8%
[3]; 80° C., 4 weeks, HPLC area %
  % Purity after 80° C., 4 wks: 86.1%
[3]; 80° C., 7 days
  % Purity (after challenge): 97.1%
  % Purity (reference material): 99.8%
[3]; Photostability 3X ICH conditions, HPLC area %
  Purity after Photostability 3X ICH conditions: 93.2%
[3]; Reference, 0 days
  % Purity (after challenge): 99.6%
  % Purity (reference material): 100%
[3]; [10]
  % Purity (after challenge): 99.6%
  % Purity (reference material): 100.7%
[3]; [11]
  % Purity (after challenge): 99.4%
  % Purity (reference material): 100.9%
[3]; [12]
  % Purity (after challenge): 99.5%
  % Purity (reference material): 100.2%
[3]; [13]
  % Purity (after challenge): 99.5%
  % Purity (reference material): 101.7%
[3]; initial, before storage, HPLC area %
  Initial Purity: 98.6%
[4]
  mean plasma exposures produced by efficacious doses: ≥ 2 ng/mL
[5]; FaSSIF, initial pH 6.51, mean ± SD, n = 2
  IDR (intrinsic dissolution rate): 553 μg/min/cm^2
[5]; FaSSIF, initial pH 6.51, mean ± SD, n = 2, listed as Compound A1 Sesquifumarate Salt
  IDR (intrinsic dissolution rate): 553 ± 68.9 μg/min/cm^2
[5]; FeSSIF, initial pH 5.03, mean ± SD, n = 2
  IDR (intrinsic dissolution rate): 33.5 μg/min/cm^2
[5]; FeSSIF, initial pH 5.03, mean ± SD, n = 2, listed as Compound A1 Sesquifumarate Salt
  IDR (intrinsic dissolution rate): 33.5 ± 1.15 μg/min/cm^2
[5]; SGF, initial pH 1.3
  IDR (intrinsic dissolution rate): too soluble to permit determination of its IDR
